The data set can be described thus: logP by HPLC (EEC Directive 79/831 Annex V. A8, gradient method). Format: physicochemical. Conditions: acetonitrile/0.1% aqueous phosphoric acid.

Usually chromatographic logP stands for lipophilicity estimated from chromatographic retention. The term logP denotes a log measure of how a compound divides between an organic and an aqueous phase.

Each structure is given as a SMILES string.

On to `CCC(C)c1c(Cl)nc2ncnn2c1Cl` (stereo not drawn) [5,7-dichloro-6-sec-butyl[1,2,4]triazolo[1,5-a]pyrimidine], for which the chromatographic logP amounted to 2.4.

As to `CCC(C)c1c(O)n2ncnc2[nH]c1=O` (stereo not drawn) [6-sec-butyl-7-hydroxy[1,2,4]triazolo[1,5-a]pyrimidin-5(4H)-one], the chromatographic logP turned out to be 0.7.

On to `C[Si](C)(C)CNc1c(-c2ccc(F)cc2Cl)c(Cl)nc2ncnn12` [Example 1], for which the chromatographic logP was determined as 3.61.

Consider `CC(Nc1c(-c2c(F)cc(F)cc2F)c(Cl)nc2ncnn12)[Si](C)(C)C` (stereo not drawn) [Example 2], for which the chromatographic logP was 3.71.

As to `C[Si](C)(C)CNc1c(-c2c(F)cccc2Cl)c(Cl)nc2ncnn12` [Example 3], the logP stood at 3.43.

In turn, `C[Si](C)(C)CNc1c(-c2c(F)cc(F)cc2F)c(Cl)nc2ncnn12` [Example 4] displayed a chromatographic logP of 3.39.

As for `CC(Nc1c(-c2c(F)cccc2Cl)c(Cl)nc2ncnn12)[Si](C)(C)C` (stereo not drawn) [Example 5], the logP was 3.79.

As for `CC(Nc1c(-c2ccc(F)cc2Cl)c(Cl)nc2ncnn12)[Si](C)(C)C` (stereo not drawn) [Example 6], the logP is on record as 3.95.

The molecule `CC(Nc1c(-c2ccccc2Cl)c(Cl)nc2ncnn12)[Si](C)(C)C` (stereo not drawn) [Example 7] showed a logP of 3.83.

In the case of `CC(C)c1nc2nc(Cl)c(-c3ncc(C(F)(F)F)cc3Cl)c(NC[Si](C)(C)C)n2n1` [Example 8], the log partition coefficient (logP) turned out to be 4.51.

For `CC(C)c1nc2nc(Cl)c(-c3ncncc3F)c(NC(C)[Si](C)(C)C)n2n1` (stereo not drawn) [Example 9], the logP is given as 3.61.

Molecule `CC(Nc1c(-c2ncccc2C(F)(F)F)c(Cl)nc2ncnn12)[Si](C)(C)C` (stereo not drawn) [Example 10] came in with a logP of 3.06.

`CC(Nc1c(-c2c(F)cccc2Cl)c(Cl)nc2nc(C3CC3)nn12)[Si](C)(C)C` (stereo not drawn) [Example 11] returned a log partition coefficient (logP) of 4.65.

As for `C[Si](C)(C)CNc1c(-c2c(F)cccc2Cl)c(Cl)nc2nc(C3CC3)nn12` [Example 12], the logP was determined as 4.22.

In turn, `C[Si](C)(C)CNc1c(-c2cc(F)ccc2F)c(Cl)nc2nc(C3CC3)nn12` [Example 13] displayed a chromatographic logP of 3.99.

Molecule `CC(Nc1c(-c2cc(F)ccc2F)c(Cl)nc2nc(C3CC3)nn12)[Si](C)(C)C` (stereo not drawn) [Example 14] had a chromatographic logP of 4.35.

The molecule `CC(C)c1nc2nc(Cl)c(-c3cc(F)ccc3F)c(NC(C)[Si](C)(C)C)n2n1` (stereo not drawn) [Example 15] showed a chromatographic logP of 4.58.

For `CC(C)c1nc2nc(Cl)c(-c3cc(F)ccc3F)c(NC[Si](C)(C)C)n2n1` [Example 16], the chromatographic logP worked out at 4.21.

The molecule `Cc1nc2nc(Cl)c(-c3cc(F)ccc3F)c(NC(C)[Si](C)(C)C)n2n1` (stereo not drawn) [Example 17] yielded a chromatographic logP of 3.73.

As for `Cc1nc2nc(Cl)c(-c3cc(F)ccc3F)c(NC[Si](C)(C)C)n2n1` [Example 18], the chromatographic logP came to 3.4.

As to `CC(Nc1c(-c2ncncc2F)c(Cl)nc2nc(C3CC3)nn12)[Si](C)(C)C` (stereo not drawn) [Example 19], the logP was found to be 2.99.

For the molecule `C[Si](C)(C)CNc1c(-c2ccccc2Cl)c(Cl)nc2nc(C3CC3)nn12` [Example 20], the logP is given as 4.23.

The molecule `CC(Nc1c(-c2ccccc2Cl)c(Cl)nc2nc(C3CC3)nn12)[Si](C)(C)C` (stereo not drawn) [Example 21] yielded a log partition coefficient (logP) of 4.66.

With `C[Si](C)(C)CNc1c(-c2ncncc2F)c(Cl)nc2nc(C3CC3)nn12` [Example 22], the logP is 3.02.

Turning to `CC(Nc1c(-c2ncncc2Cl)c(Cl)nc2ncnn12)[Si](C)(C)C` (stereo not drawn) [Example 23], the log partition coefficient (logP) is listed as 2.70.

As to `C[Si](C)(C)CNc1c(-c2ncncc2Cl)c(Cl)nc2ncnn12` [Example 24], the lipophilicity (logP) worked out at 2.44.

As for `CCC(C)c1c(Cl)nc2ncnn2c1NC[Si](C)(C)C` (stereo not drawn) [Example 26, 5-chloro-6-sec-butyl-7-trimethylsilylmethylamino[1,2,4]triazolo[1,5-a]pyrimidine], the chromatographic logP amounted to 3.34.

For the molecule `Cc1nc2nc(Cl)c(-c3ncncc3F)c(NC[Si](C)(C)C)n2n1` [Example 27], the logP was 2.43.

For the molecule `Cc1nc2nc(Cl)c(-c3ncncc3F)c(NC(C)[Si](C)(C)C)n2n1` (stereo not drawn) [Example 28], the logP is reported as 2.73.

In the case of `C[Si](C)(C)CNc1c(-c2cc(F)ccc2F)c(Cl)nc2ncnn12` [Example 39], the chromatographic logP was determined as 3.26.

Molecule `CC(Nc1c(-c2cc(F)ccc2F)c(Cl)nc2ncnn12)[Si](C)(C)C` (stereo not drawn) [Example 40] registered a chromatographic logP of 3.57.

For the molecule `C[Si](C)(C)CNc1c(-c2ncncc2F)c(Cl)nc2ncnn12` [Example 41], the logP turned out to be 2.28.

The molecule `CC(Nc1c(-c2ncncc2F)c(Cl)nc2ncnn12)[Si](C)(C)C` (stereo not drawn) [Example 42] displayed a logP of 2.57.

The record behind these values is patent US20070293514A1, “Triazolopyrimidines” (priority 2003, published 2007).
